Reference: patent US20110015067A1, “Herbicidal Compositions Comprising Pyroxasulfone” (BASF SE, priority 2008, published 2011)
Where two headings read alike, the source gives them in different places.

Experiments:
Experiment in all cases: pre-emergence greenhouse test
Format in all cases: in vivo
[1] = tested on: LOLMU (Lolium multiflorum); details: for observed activity in % destruction: pre-emergence
Excerpt: (§1) For the pre-emergence treatment, directly after sowing the active compounds, which had been suspended or emulsified in water, were applied by means of finely distributed nozzles. The containers were irrigated gently to promote germination and growth and subsequently covered with transparent plastic hoods until plant had rooted. This cover caused uniform germination of the tests plants, unless this was adversely affected by active compounds.
(§2) The respective herbicides A and/or safener were formulated as 10% by weight strength suspension concentrate and introduced to the spray liquor with the amount of solvent system used for applying the active compound. Herbicide B and/or safener were used as commercially available formulations and introduced to the spray liquor with the amount of solvent system used for applying the active compound. In the examples, the solvent used was water.
(§3) The test period extended over 20 days. During this time, the plants were tended, and their response to the treatments with active compound was evaluated.
(§4) In the following experiments, the herbicidal activity for the individual herbicide compounds (solo application) and of the mixture was assessed 8 days after treatment (8 DAT) and/or 20 days after treatment (20 DAT).
(§5) The evaluation for the damage caused by the chemical compositions was carried out using a scale from 0 to 100%, compared to the untreated control plants. Here, 0 means no damage and 100 means complete destruction of the plants.

[2] = tested on: ECHCG (Echinochloa crus-galli); details: for inhibition at 25 g/ha: Echinochloa crus-galli, use rate 25 g ai/ha, read-out: observed % activity; for inhibition at 25 g/ha / observed activity in % destruction: pre-emergence
Excerpt: as §1, §2, §3, §4, §5

[3] = tested on: PANDI (Panicum dichotomiflorum); details: for observed activity in % destruction: pre-emergence
Excerpt: as §1, §2, §3, §4, §5

[4] = tested on: PANMI (Panicum milliaceum)
Excerpt: as §1, §2, §3, §4, §5

[5] = tested on: AMARE (Amaranthus retroflexus); details: for inhibition at 12.5 g/ha: Amaranthus retroflexus, use rate 12.5 g ai/ha, read-out: observed % activity; for inhibition at 12.5 g/ha / observed activity in % destruction: pre-emergence
Excerpt: as §1, §2, §3, §4, §5

[6] = tested on: DIGSA (Digitaria sanguinalis); details: DIGSA pre-emergence 25 g ai/ha
Excerpt: as §1, §2, §3, §4, §5

SETFA (Setaria faberii) = details: SETFA pre-emergence 25 g ai/ha
Excerpt: as §1, §2, §3, §4, §5

PHBPU (Ipomoea purpurea) = details: for observed activity in % destruction: pre-emergence, 50 g ai/ha
Excerpt: as §1, §2, §3, §4, §5

ERBVI = details: for observed activity in % destruction: pre-emergence, 25 g ai/ha
Excerpt: as §1, §2, §3, §4, §5

[7] = tested on: ABUTH (Abutilon theophrasti); details: for observed activity in % destruction: pre-emergence, 50 g ai/ha
Excerpt: as §1, §2, §3, §4, §5

[8] = tested on: AMBEL (Ambrosia artemisifolia); details: for observed activity in % destruction: pre-emergence, 50 g ai/ha
Excerpt: as §1, §2, §3, §4, §5

SOLNI (Solanum nigrum) = details: for inhibition at 50 g/ha: Solanum nigrum, use rate 50 g ai/ha, read-out: observed % activity; for inhibition at 50 g/ha / observed activity in % destruction: pre-emergence
Excerpt: as §1, §2, §3, §4, §5

[9] = tested on: CCHEC (Cenchrus echinatus)
Excerpt: as §1, §2, §3, §4, §5

[10] = ECHCG pre-emergence 12.5 g ai/ha
[11] = PANDI pre-emergence 6.25 g ai/ha
[12] = ABUTH pre-emergence 6.25 g ai/ha
[13] = ABUTH pre-emergence 12.5 g ai/ha

Cn1nc(C(F)(F)F)c(CS(=O)(=O)C2=NOC(C)(C)C2)c1OC(F)F [pyroxasulfone, 3-[5-(difluoromethoxy)-1-methyl-3-(trifluoromethyl)pyrazol-4-ylmethylsulfonyl]-4,5-dihydro-5,5-dimethyl-1,2-oxazole]
observed % destruction 20 DAT ([1]; LOLMU pre-emergence 6.25 g ai/ha): 50% | observed % destruction 20 DAT ([1]; LOLMU pre-emergence 12.5 g ai/ha): 65% | observed % destruction 20 DAT ([1]; LOLMU pre-emergence 50 g ai/ha): 98% | observed activity in % destruction ([1]; 6.25 g ai/ha, 8 DAT): 40% | observed activity in % destruction ([1]; 6.25 g ai/ha, 20 DAT): 50% | observed activity in % destruction ([1]; 12.5 g ai/ha, 8 DAT): 50% | observed activity in % destruction ([1]; 12.5 g ai/ha, 20 DAT): 65% | observed activity in % destruction ([1]; 50 g ai/ha, 8 DAT): 90% | observed activity in % destruction ([1]; 50 g ai/ha, 20 DAT): 98% | observed % destruction 8 DAT [2, 10]: 70% | observed % destruction 20 DAT [2, 10]: 98% | observed % destruction 8 DAT ([2]; ECHCG pre-emergence 25 g ai/ha): 75% | observed % destruction 20 DAT ([2]; ECHCG pre-emergence 25 g ai/ha): 98% | observed % destruction 8 DAT ([2]; ECHCG pre-emergence 50 g ai/ha): 90% | observed % destruction 20 DAT ([2]; ECHCG pre-emergence 50 g ai/ha): 100% | inhibition at 25 g/ha ([2]; 192 h, 8 DAT): 75% | inhibition at 25 g/ha ([2]; 480 h, 20 DAT): 98% | observed activity in % destruction ([2]; 12.5 g ai/ha, 8 DAT): 70% | observed activity in % destruction ([2]; 12.5 g ai/ha, 20 DAT): 98% | observed activity in % destruction ([2]; 25 g ai/ha, 8 DAT): 75% | observed activity in % destruction ([2]; 25 g ai/ha, 20 DAT): 98% | observed activity in % destruction ([2]; 50 g ai/ha, 8 DAT): 90% | observed activity in % destruction ([2]; 50 g ai/ha, 20 DAT): 100% | observed % destruction 8 DAT [3, 11]: 65% | observed % destruction 20 DAT [3, 11]: 90% | observed % destruction 8 DAT ([3]; PANDI pre-emergence 25 g ai/ha): 90% | observed % destruction 20 DAT ([3]; PANDI pre-emergence 25 g ai/ha): 100% | observed % destruction 8 DAT ([3]; PANDI pre-emergence 50 g ai/ha): 90% | observed % destruction 20 DAT ([3]; PANDI pre-emergence 50 g ai/ha): 100% | observed activity in % destruction ([3]; 6.25 g ai/ha, 8 DAT): 65% | observed activity in % destruction ([3]; 6.25 g ai/ha, 20 DAT): 90% | observed activity in % destruction ([3]; 12.5 g ai/ha, 8 DAT): 80% | observed activity in % destruction ([3]; 12.5 g ai/ha, 20 DAT): 100% | observed activity in % destruction ([3]; 50 g ai/ha, 8 DAT): 90% | observed activity in % destruction ([3]; 50 g ai/ha, 20 DAT): 100% | observed % destruction 20 DAT ([4]; PANMI pre-emergence 6.25 g ai/ha): 35% | observed % destruction 20 DAT ([4]; PANMI pre-emergence 25 g ai/ha): 85% | observed % destruction 8 DAT ([4]; PANMI pre-emergence 50 g ai/ha): 75% | observed % destruction 20 DAT ([4]; PANMI pre-emergence 50 g ai/ha): 90% | observed % destruction 20 DAT ([5]; AMARE pre-emergence 12.5 g ai/ha): 95% | observed % destruction 8 DAT ([5]; AMARE pre-emergence 25 g ai/ha): 80% | observed % destruction 20 DAT ([5]; AMARE pre-emergence 25 g ai/ha): 100% | inhibition at 12.5 g/ha ([5]; 192 h, 8 DAT): 80% | inhibition at 12.5 g/ha ([5]; 480 h, 20 DAT): 95% | observed activity in % destruction ([5]; 12.5 g ai/ha, 8 DAT): 80% | observed activity in % destruction ([5]; 12.5 g ai/ha, 20 DAT): 95% | observed activity in % destruction ([5]; 25 g ai/ha, 8 DAT): 80% | observed activity in % destruction ([5]; 25 g ai/ha, 20 DAT): 100% | observed activity in % destruction ([5]; 50 g ai/ha, 8 DAT): 90% | observed activity in % destruction ([5]; 50 g ai/ha, 20 DAT): 100% | observed % destruction 8 DAT [6]: 90% | observed % destruction 20 DAT [6]: 100% | observed % destruction 20 DAT (SETFA (Setaria faberii)): 98% | observed % destruction 20 DAT (PHBPU (Ipomoea purpurea); PHBPU pre-emergence 6.25 g ai/ha): 0% | observed % destruction 20 DAT (PHBPU (Ipomoea purpurea); PHBPU pre-emergence 12.5 g ai/ha): 55% | observed % destruction 20 DAT (PHBPU (Ipomoea purpurea); PHBPU pre-emergence 50 g ai/ha): 75% | observed activity in % destruction (PHBPU (Ipomoea purpurea); 8 DAT): 30% | observed activity in % destruction (PHBPU (Ipomoea purpurea); 20 DAT): 75% | observed % destruction 20 DAT (ERBVI; ERBVI pre-emergence 6.25 g ai/ha): 40% | observed % destruction 20 DAT (ERBVI; ERBVI pre-emergence 12.5 g ai/ha): 55% | observed % destruction 8 DAT (ERBVI; ERBVI pre-emergence 25 g ai/ha): 60% | observed % destruction 20 DAT (ERBVI; ERBVI pre-emergence 25 g ai/ha): 75% | observed activity in % destruction (ERBVI; 8 DAT): 60% | observed activity in % destruction (ERBVI; 20 DAT): 75% | observed % destruction 8 DAT [7, 12]: 0% | observed % destruction 20 DAT [7, 12]: 30% | observed % destruction 8 DAT [7, 13]: 0% | observed % destruction 20 DAT [7, 13]: 40% | observed activity in % destruction ([7]; 8 DAT): 40% | observed activity in % destruction ([7]; 20 DAT): 95% | observed % destruction 20 DAT ([8]; AMBEL pre-emergence 6.25 g ai/ha): 0% | observed % destruction 20 DAT ([8]; AMBEL pre-emergence 12.5 g ai/ha): 40% | observed % destruction 20 DAT ([8]; AMBEL pre-emergence 25 g ai/ha): 40% | observed % destruction 8 DAT ([8]; AMBEL pre-emergence 50 g ai/ha): 50% | observed % destruction 20 DAT ([8]; AMBEL pre-emergence 50 g ai/ha): 85% | observed activity in % destruction ([8]; 8 DAT): 50% | observed activity in % destruction ([8]; 20 DAT): 85% | observed % destruction 20 DAT (SOLNI (Solanum nigrum); SOLNI pre-emergence 6.25 g ai/ha): 50% | observed % destruction 20 DAT (SOLNI (Solanum nigrum); SOLNI pre-emergence 12.5 g ai/ha): 70% | observed % destruction 20 DAT (SOLNI (Solanum nigrum); SOLNI pre-emergence 25 g ai/ha): 90% | observed % destruction 8 DAT (SOLNI (Solanum nigrum); SOLNI pre-emergence 50 g ai/ha): 50% | observed % destruction 20 DAT (SOLNI (Solanum nigrum); SOLNI pre-emergence 50 g ai/ha): 95% | inhibition at 50 g/ha (SOLNI (Solanum nigrum); 192 h, 8 DAT): 50% | inhibition at 50 g/ha (SOLNI (Solanum nigrum); 480 h, 20 DAT): 95% | observed activity in % destruction (SOLNI (Solanum nigrum); 12.5 g ai/ha, 8 DAT): 30% | observed activity in % destruction (SOLNI (Solanum nigrum); 12.5 g ai/ha, 20 DAT): 70% | observed activity in % destruction (SOLNI (Solanum nigrum); 25 g ai/ha, 8 DAT): 30% | observed activity in % destruction (SOLNI (Solanum nigrum); 25 g ai/ha, 20 DAT): 90% | observed activity in % destruction (SOLNI (Solanum nigrum); 50 g ai/ha, 8 DAT): 50% | observed activity in % destruction (SOLNI (Solanum nigrum); 50 g ai/ha, 20 DAT): 95% | observed % destruction 20 DAT ([9]; CCHEC pre-emergence 6.25 g ai/ha): 35% | observed % destruction 20 DAT ([9]; CCHEC pre-emergence 12.5 g ai/ha): 65%
